In patent US20100105655A1, “NOVEL COMPOUNDS 515” (ASTRAZENECA AB, priority 2008, published 2010):

Each molecule was assayed against T1, IGFR kinase (Homo sapiens, UniProt P08069) (assay: Enzyme assay (c), IGFR kinase, Caliper LabChip). Conditions: 30 nM IGFR kinase, 6 uM ATP, 3 uM peptide mix; read-out: IGFR IC50.
T1 construct: purchased Millipore
Type: biochemical

T1 sequence (P08069 31-1367): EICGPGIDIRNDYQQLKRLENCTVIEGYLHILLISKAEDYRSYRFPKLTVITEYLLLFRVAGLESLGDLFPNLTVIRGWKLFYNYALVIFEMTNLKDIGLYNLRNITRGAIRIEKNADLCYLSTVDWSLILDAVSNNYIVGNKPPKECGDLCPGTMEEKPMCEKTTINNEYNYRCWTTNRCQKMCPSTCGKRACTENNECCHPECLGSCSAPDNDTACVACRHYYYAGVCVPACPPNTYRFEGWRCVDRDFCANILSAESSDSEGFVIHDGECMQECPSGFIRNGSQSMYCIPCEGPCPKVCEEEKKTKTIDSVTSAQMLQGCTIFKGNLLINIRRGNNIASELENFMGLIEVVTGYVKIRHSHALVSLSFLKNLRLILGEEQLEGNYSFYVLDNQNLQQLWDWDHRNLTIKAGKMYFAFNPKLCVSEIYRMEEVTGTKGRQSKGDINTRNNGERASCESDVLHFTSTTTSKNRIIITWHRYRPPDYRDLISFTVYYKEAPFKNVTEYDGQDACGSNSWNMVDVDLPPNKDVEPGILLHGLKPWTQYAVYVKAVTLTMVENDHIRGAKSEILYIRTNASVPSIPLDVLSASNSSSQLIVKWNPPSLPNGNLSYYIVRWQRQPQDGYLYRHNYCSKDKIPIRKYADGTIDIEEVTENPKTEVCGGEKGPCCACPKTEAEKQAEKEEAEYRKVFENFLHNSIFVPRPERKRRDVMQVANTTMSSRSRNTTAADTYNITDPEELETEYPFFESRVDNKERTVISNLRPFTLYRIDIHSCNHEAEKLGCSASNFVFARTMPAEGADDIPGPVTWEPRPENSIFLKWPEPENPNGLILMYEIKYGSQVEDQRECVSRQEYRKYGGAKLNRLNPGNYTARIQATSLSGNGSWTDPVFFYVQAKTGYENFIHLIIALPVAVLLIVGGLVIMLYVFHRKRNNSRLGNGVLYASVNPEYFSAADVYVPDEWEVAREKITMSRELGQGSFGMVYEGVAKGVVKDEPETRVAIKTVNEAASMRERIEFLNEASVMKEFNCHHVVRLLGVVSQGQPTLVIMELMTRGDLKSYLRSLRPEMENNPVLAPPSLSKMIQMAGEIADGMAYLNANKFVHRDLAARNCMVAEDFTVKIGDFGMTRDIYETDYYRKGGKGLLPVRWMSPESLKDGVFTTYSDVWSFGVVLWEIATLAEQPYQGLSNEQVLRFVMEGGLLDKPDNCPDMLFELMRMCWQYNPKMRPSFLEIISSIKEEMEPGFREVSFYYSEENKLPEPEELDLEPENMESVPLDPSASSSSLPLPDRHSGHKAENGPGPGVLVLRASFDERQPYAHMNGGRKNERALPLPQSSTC

| IC50 | SMILES |
| --- | --- |
| 68 nM | COc1cc(C=O)ccc1Nc1ncc(Cl)c(-c2cnc3ccccn23)n1 [Example 20A, 4-(5-chloro-4-(imidazo[1,2-a]pyridin-3-yl)pyrimidin-2-ylamino)-3-methoxybenzaldehyde] |
| 48 nM | COc1cc(N(C)CC(=O)N2CCNCC2)ccc1Nc1ncc(Cl)c(-c2cnc3c(F)cccn23)n1 [Example 227, 2-[4-[[5-chloro-4-(8-fluoroimidazo[1,2-a]pyridin-3-yl)pyrimidin-2-yl]amino]-3-methoxy-N-methyl-anilino]-1-piperazin-1-yl-ethanone] |
| 95 nM | COc1cc(N2CCN(C)CC2)ccc1Nc1ncc(F)c(-c2cnc3ccccn23)n1 [Example 119, 5-fluoro-4-imidazo[1,2-a]pyridin-3-yl-N-[2-methoxy-4-(4-methylpiperazin-1-yl)phenyl]pyrimidin-2-amine] |
| 23 nM | COc1cc(N2CCNC(=O)C2)ccc1Nc1ncc(F)c(-c2cnc3ccccn23)n1 [Example 88, 4-[4-[(5-fluoro-4-imidazo[1,2-a]pyridin-3-yl-pyrimidin-2-yl)amino]-3-methoxy-phenyl]piperazin-2-one] |
| 7 nM | COc1cc(N2CCN(CC(=O)N(C)CCO)CC2)ccc1Nc1ncc(Cl)c(-c2cnc3ccccn23)n1 [Example 67, 2-[4-[4-[(5-chloro-4-imidazo[1,2-a]pyridin-3-yl-pyrimidin-2-yl)amino]-3-methoxy-phenyl]piperazin-1-yl]-N-(2-hydroxyethyl)-N-methyl-acetamide] |
| 4 nM | COc1cc(C2CCN(C(=O)CO)CC2)ccc1Nc1ncc(Cl)c(-c2cnc3cc(C)ccn23)n1 [Example 245, 1-[4-[4-[[5-chloro-4-(7-methylimidazo[1,2-a]pyridin-3-yl)pyrimidin-2-yl]amino]-3-methoxy-phenyl]-1-piperidyl]-2-hydroxy-ethanone] |
| 0.3 nM | COc1cc(N2CCCC2)ccc1Nc1ncc(Cl)c(-c2cnc3ccccn23)n1 [Example 3.44, 5-chloro-4-imidazo[1,2-a]pyridin-3-yl-N-(2-methoxy-4-pyrrolidin-1-yl-phenyl)pyrimidin-2-amine] |
| 16 nM | COc1cc(C(C)C(=O)N2CCN(CCO)CC2)ccc1Nc1ncc(Cl)c(-c2cnc3ccccn23)n1 (centres unmarked) [Example 3.41, 2-[4-[(5-chloro-4-imidazo[1,2-a]pyridin-3-yl-pyrimidin-2-yl)amino]-3-methoxy-phenyl]-1-[4-(2-hydroxyethyl)piperazin-1-yl]propan-1-one] |
| 31 nM | COc1cc(OC2CN(C(=O)[C@H](C)O)C2)ccc1Nc1ncc(Cl)c(-c2cnc3ccccn23)n1 [Example 27.1, (2S)-1-[3-[4-[(5-chloro-4-imidazo[1,2-a]pyridin-3-yl-pyrimidin-2-yl)amino]-3-methoxy-phenoxy]azetidin-1-yl]-2-hydroxy-propan-1-one] |
| 56 nM | COc1cc(N2CCOCC2)ccc1Nc1ncc(F)c(-c2cnc3ccccn23)n1 [Example 79, 5-fluoro-4-imidazo[1,2-a]pyridin-3-yl-N-(2-methoxy-4-morpholino-phenyl)pyrimidin-2-amine] |
| 5 nM | COc1cc(N(C)CCN(C)C(=O)CO)ccc1Nc1ncc(Cl)c(-c2cnc3c(F)cccn23)n1 [Example 220, N-[2-[4-[[5-chloro-4-(8-fluoroimidazo[1,2-a]pyridin-3-yl)pyrimidin-2-yl]amino]-3-methoxy-N-methyl-anilino]ethyl]-2-hydroxy-N-methyl-acetamide] |
| 23 nM | COc1cc(CN[C@@H](C)CO)ccc1Nc1ncc(Cl)c(-c2cnc3ccccn23)n1 [Example 21.19, (2S)-2-[[4-[(5-chloro-4-imidazo[1,2-a]pyridin-3-yl-pyrimidin-2-yl)amino]-3-methoxy-phenyl]methylamino]propan-1-ol] |
| 26 nM | COc1cc(N2CCN(C[C@@H](C)O)CC2)ccc1Nc1ncc(C)c(-c2cnc3ccccn23)n1 [Example 105, (2R)-1-[4-[4-[(4-imidazo[1,2-a]pyridin-3-yl-5-methyl-pyrimidin-2-yl)amino]-3-methoxy-phenyl]piperazin-1-yl]propan-2-ol] |
| 120 nM | COc1cc(N2CCN(C(C)=O)CC2)ccc1Nc1ncc(Cl)c(-c2cnc3cc(CN(C)C(C)=O)ccn23)n1 [Example 188, N-[[3-[2-[4-(4-acetylpiperazin-1-yl)-2-methoxy-anilino]-5-chloro-pyrimidin-4-yl]imidazo[1,2-a]pyridin-7-yl]methyl]-N-methyl-acetamide] |
| 12 nM | CC(=O)N1CCN(c2cccc(Nc3ncc(Cl)c(-c4cnc5ccccn45)n3)c2C)CC1 [Example 3.37, 1-[4-[3-[(5-chloro-4-imidazo[1,2-a]pyridin-3-yl-pyrimidin-2-yl)amino]-2-methyl-phenyl]piperazin-1-yl]ethanone] |
| 17 nM | COc1cc(N2CCNCC2)ccc1Nc1ncc(F)c(-c2cnn3ccccc23)n1 [Example 171, 5-fluoro-N-(2-methoxy-4-piperazin-1-yl-phenyl)-4-pyrazolo[1,5-a]pyridin-3-yl-pyrimidin-2-amine] |

| IC50 | SMILES |
| --- | --- |
| 13 nM | COc1cc(O[C@@H]2CCN(C(=O)[C@H](C)O)C2)ccc1Nc1ncc(Cl)c(-c2cnc3ccccn23)n1 [Example 12A, (2S)-1-[(3R)-3-[4-[(5-chloro-4-imidazo[1,2-a]pyridin-3-yl-pyrimidin-2-yl)amino]-3-methoxy-phenoxy]pyrrolidin-1-yl]-2-hydroxy-propan-1-one] |
| 15 nM | COc1cc(N2CCN(C(=O)C3(O)CC3)CC2)ccc1Nc1ncc(Cl)c(-c2cnc3ccccn23)n1 [Example 22, [4-[4-[(5-chloro-4-imidazo[1,2-a]pyridin-3-yl-pyrimidin-2-yl)amino]-3-methoxy-phenyl]piperazin-1-yl]-(1-hydroxycyclopropyl)methanone] |
| 12 nM | COCC(=O)N1CCN(c2ccc(Nc3ncc(Cl)c(-c4cnc5ccccn45)n3)c(OC)c2)CC1 [Example 39, 1-[4-[4-[(5-chloro-4-imidazo[1,2-a]pyridin-3-yl-pyrimidin-2-yl)amino]-3-methoxy-phenyl]piperazin-1-yl]-2-methoxy-ethanone] |
| 24 nM | COc1cc(CN2CCC[C@@H](O)C2)ccc1Nc1ncc(Cl)c(-c2cnc3ccccn23)n1 [Example 21.12, (3R)-1-[[4-[(5-chloro-4-imidazo[1,2-a]pyridin-3-yl-pyrimidin-2-yl)amino]-3-methoxy-phenyl]methyl]piperidin-3-ol] |
| 95 nM | COc1ccc(N2CC3CNCC(C2)O3)cc1Nc1ncc(Cl)c(-c2cnn3ccccc23)n1 [Example 189, 5-chloro-N-[2-methoxy-5-(9-oxa-3,7-diazabicyclo[3.3.1]nonan-7-yl)phenyl]-4-yrazolo[1,5-a]pyridin-3-yl-pyrimidin-2-amine] |
| 6 nM | COc1cc(C2CCN(C(=O)N(C)CCO)CC2)ccc1Nc1ncc(Cl)c(-c2cnc3ccccn23)n1 [Example 58, 4-[4-[(5-chloro-4-imidazo[1,2-a]pyridin-3-yl-pyrimidin-2-yl)amino]-3-methoxy-phenyl]-N-(2-hydroxyethyl)-N-methyl-piperidine-1-carboxamide] |
| 36 nM | COc1cc(OC2CCN(C(C)=O)CC2)ccc1Nc1ncc(C(F)(F)F)c(-c2cnc3ccccn23)n1 [Example 110, 1-[4-[4-[[4-imidazo[1,2-a]pyridin-3-yl-5-(trifluoromethyl)pyrimidin-2-yl]amino]-3-methoxy-phenoxy]-1-piperidyl]ethanone] |
| 128 nM | CCN1CCN(c2ccc(Nc3ncc(F)c(-c4cnc5ccccn45)n3)c(OC)c2)CC1 [Example 120, N-[4-(4-ethylpiperazin-1-yl)-2-methoxyphenyl]-5-fluoro-4-imidazo[1,2-a]pyridin-3-ylpyrimidin-2-amine] |
| 23 nM | COc1cc(CN2CCCN(C)CC2)ccc1Nc1ncc(Cl)c(-c2cnc3ccccn23)n1 [Example 21.11, 5-chloro-4-imidazo[1,2-a]pyridin-3-yl-N-[2-methoxy-4-[(4-methyl-1,4-diazepan-1-yl)methyl]phenyl]pyrimidin-2-amine] |
| 44 nM | COc1cc(CC(=O)N2CC[C@H](O)C2)ccc1Nc1ncc(Cl)c(-c2cnc3ccccn23)n1 [Example 38, 2-[4-[(5-chloro-4-imidazo[1,2-a]pyridin-3-yl-pyrimidin-2-yl)amino]-3-methoxy-phenyl]-1-[(3S)-3-hydroxypyrrolidin-1-yl]ethanone] |
| 20 nM | COc1cc(N2CC(C)NC(C)C2)ccc1Nc1ncc(Cl)c(-c2cnc3ccccn23)n1 (centres unmarked) [Example 3.6, 5-chloro-N-[4-(3,5-dimethylpiperazin-1-yl)-2-methoxy-phenyl]-4-imidazo[1,2-a]pyridin-3-yl-pyrimidin-2-amine] |
| 3 nM | COc1cc(N2CCN(C(=O)[C@H](C)N)CC2)ccc1Nc1ncc(Cl)c(-c2cnn3ccccc23)n1 [Example 132, (2S)-2-amino-1-[4-[4-[(5-chloro-4-pyrazolo[1,5-a]pyridin-3-yl-pyrimidin-2-yl)amino]-3-methoxy-phenyl]piperazin-1-yl]propan-1-one] |
| 49 nM | CNCC(=O)N1CCN(c2ccc(OC)c(Nc3ncc(C)c(-c4cnn5ccccc45)n3)c2)CC1 [Example 167, 1-[4-[4-methoxy-3-[(5-methyl-4-pyrazolo[1,5-a]pyridin-3-yl-pyrimidin-2-yl)amino]phenyl]piperazin-1-yl]-2-(methylamino)ethanone] |
| 17 nM | COc1cc(C(=O)N2C[C@@H]3C[C@H]2CN3)ccc1Nc1ncc(Cl)c(-c2cnc3ccccn23)n1 [Example 29, [4-[(5-chloro-4-imidazo[1,2-a]pyridin-3-yl-pyrimidin-2-yl)amino]-3-methoxy-phenyl]-[(1S,4S)-2,5-diazabicyclo[2.2.1]heptan-5-yl]methanone] |
| 740 nM | COc1cc(N2CC3CN(C(CO)CO)CC(C2)O3)ccc1Nc1ncc(Cl)c(-c2cnn3ccccc23)n1 [Example 242, 2-[7-[4-[(5-chloro-4-pyrazolo[1,5-a]pyridin-3-yl-pyrimidin-2-yl)amino]-3-methoxy-phenyl]-9-oxa-3,7-diazabicyclo[3.3.1]nonan-3-yl]propane-1,3-diol] |
| 26 nM | COc1cc(C2CCN(C(=O)CO)CC2)ccc1Nc1ncc(C)c(-c2cnc3c(F)cccn23)n1 [Example 198, 1-[4-[4-[[4-(8-fluoroimidazo[1,2-a]pyridin-3-yl)-5-methyl-pyrimidin-2-yl]amino]-3-methoxy-phenyl]-1-piperidyl]-2-hydroxy-ethanone] |
